Assay results published in patent US9434719B2, “3-pyrimidin-4-yl-oxazolidin-2-ones as inhibitors of mutant IDH” (NOVARTIS AG, priority 2013, dated 2016).
Counter-ions that a name gives are not always drawn.

Legend:
Format in all cases: in vitro ADME
[1] = Metabolic stability in liver microsomes, Method II, mouse; settings: NADPH + UDPGA; for microsomal CLint: 1 μM test compound
Protocol: (§1) Determination of Metabolic Stability in Liver Microsomes—Method II
(§2) The in vitro metabolic stability assay was performed in a 96-deep-well plate with incubation at 37° C. 10 mM DMSO stock solution of the test compound was diluted 1:20 in acetonitrile, followed by an additional 1:10 dilution in 100 mM potassium phosphate buffer (KPi) to yield a final reaction concentration of 1 μM. Immediately prior to the start of the experiment, respective animal or human liver microsomes (male Sprague-dawley rat, male CD-1 mouse, or pooled human liver microsomes) were diluted in 100 mM KPi to 1.25 mg/mL liver microsomal protein. 290 μL of cofactor solution (1.7 mM NADPH, 1.7 mM UDPGA, 3.4 mM MgCl in 100 mM KPi) was added to 200 μL of microsomal protein for a final volume of 490 μL. The reaction was initiated by adding 10 μL of the 50 μM test solution to 490 μL of microsomal protein for a final volume 500 μL enzyme-compound mixture.
(§3) At 0, 5, 15 and 30 minute time points in the reaction, reaction aliquots (75 μL) were removed and the reactions were terminated by the addition of 50:50 acetonitrile/methanol solution (75 μL) containing a mass spectrometry internal standard (0.5 μM glyburide). The samples were centrifuged at 4000 RPM for 10 minutes. Supernatants (15 μL aliquots) were transferred to a new plate where each well contains 90 μL of deionized water. The supernatants solution were analyzed by UPLC/MS/MS for quantitation of parent remaining compound under multiple reactions monitoring mode (MRM) in positive mode. The percentage of compound remaining, relative to 0 minutes, was used to estimate in vitro elimination-rate constant (k) which was used to calculate in vitro metabolic clearance rates.
(§4) Analysis of the samples was performed on an ultra-performance liquid chromatography-tandem mass spectrometry (UPLC/MS/MS) system consisting of an AB Sciex Qtrap 5500 mass spectrometer, AB Sciex Turbo V ion source, Waters Acquity Sample Organizer, Waters Acquity Column manager, Waters Acquity Sample manager, and a Waters Acquity Binary Solvent Manager. Chromatographic separation of analyte and internal standard was achieved using a reverse phase C-18 column (50×2.1 mm, 1.7 μm, Acquity UPLC BEH C-18) with the following UPLC mobile phases and elution gradient: […]
(§5) UPLC mobile phase A: 0.25% formic acid in 5% methanol; mobile phase B: 0.25% formic acid in […].
(§6) The injection volume was 5 μL. Compounds were detected using Analyst 1.5.1 software which collects intensity data for all fragments related to the molecular weight of the test compound. After collection of the raw data, the software identifies and integrates the peak of the strongest intensity.
(§7) Each microsomal elimination rate, k, was based on a 4-point elimination curve tested in duplicates. LC-MS/MS raw data for a reaction plate was returned as integrated analyte peak areas for the test compound and internal standard used in the quench solution for the reaction to enable use of analyte:internal standard peak area ratios (PARs) for all data comparisons. The reaction time point (e.g. 0, 5, 15 and 30 minutes) was plotted versus the natural logarithm of percent test compound remaining relative to 0 minutes (based on relative PAR). The slope of this clearance plot, k, was used to calculate the in vitro half-life.
(§8) [formula] The intrinsic clearance value, CLint (expressed as μL/min/mg microsomal protein) calculation is shown below:
(§9) [formula] Where V=the incubation volume (mL) and M=the microsomal protein content in the incubation (mg)

[2] = Metabolic stability in liver microsomes, Method II, rat; settings: 1 μM test compound, NADPH + UDPGA
Protocol: The in vitro metabolic stability assay was performed in a 96-deep-well plate with incubation at 37° C. 10 mM DMSO stock solution of the test compound was diluted 1:20 in acetonitrile, followed by an additional 1:10 dilution in 100 mM potassium phosphate buffer (KPi) to yield a final reaction concentration of 1 μM. […] 290 μL of cofactor solution (1.7 mM NADPH, 1.7 mM UDPGA, 3.4 mM MgCl in 100 mM KPi) was added to 200 μL of microsomal protein for a final volume of 490 μL. The reaction was initiated by adding 10 μL of the 50 μM test solution to 490 μL of microsomal protein for a final volume 500 μL enzyme-compound mixture.
UPLC mobile phase A: 0.25% formic acid in 5% methanol; mobile phase B: 0.25% formic acid in 95% water.

[3] = Metabolic stability in liver microsomes, Method II, human; settings: 1 μM test compound, NADPH + UDPGA
Protocol: as §1, §2, §3, §4, §5, §6, §7, §8, §9

| microsomal CLint [1] | microsomal CLint [2] | microsomal CLint [3] | microsomal CLint at 1 μM ([1]; male, CD-1, 1 μM test compound) | microsomal CLint at 1 μM ([2]; male, Sprague-Dawley) | microsomal CLint at 1 μM ([3]; pooled liver microsomes) | Structure (SMILES) |
| --- | --- | --- | --- | --- | --- | --- |
| 55.3 µL/min/mg | 219 µL/min/mg | 10.9 µL/min/mg | – | – | – | C[C@H](Nc1nccc(N2C(=O)OC[C@@H]2[C@H](C)F)n1)c1cn(-c2ccc(F)cc2F)cn1 [478 as TFA salt] |
| 116 µL/min/mg | 173 µL/min/mg | 11.9 µL/min/mg | – | – | – | C[C@H](Nc1ncc(F)c(N2C(=O)OC[C@@H]2[C@H](C)F)n1)c1cn(-c2ccc(F)cc2F)cn1 [479 as TFA salt] |
| – | – | – | 167 µL/min/mg | 438 µL/min/mg | 30.4 µL/min/mg | C[C@H](Nc1ncc(F)c(N2C(=O)OC[C@@H]2[C@H](C)F)n1)c1cn(-c2ccc(Cl)cc2F)cn1 [Example 477, (R)-3-(2-(((S)-1-(1-(4-chloro-2-fluorophenyl)-1H-imidazol-4-yl)ethyl)amino)-5-fluoropyrimidin-4-yl)-4-((S)-1-fluoroethyl)oxazolidin-2-one] |

Continued, compound first:

| Structure (SMILES) | microsomal CLint [1] | microsomal CLint [2] | microsomal CLint [3] | microsomal CLint at 1 μM ([1]; male, CD-1, 1 μM test compound) | microsomal CLint at 1 μM ([2]; male, Sprague-Dawley) | microsomal CLint at 1 μM ([3]; pooled liver microsomes) |
| --- | --- | --- | --- | --- | --- | --- |
| C[C@H](Nc1nccc(N2C(=O)OC[C@@H]2CF)n1)c1cn(-c2ccc(F)c(F)c2)cn1 [474 as TFA salt] | < 7.7 µL/min/mg | 24.8 µL/min/mg | < 7.7 µL/min/mg | – | – | – |
| C[C@H](Nc1nccc(N2C(=O)OC[C@@H]2[C@H](C)F)n1)c1cn(-c2ccc(Cl)cc2F)cn1 [476 as TFA salt] | 111 µL/min/mg | 344 µL/min/mg | 41.4 µL/min/mg | – | – | – |
